{"source": "PubChem BioAssay (NCI)", "assay_in_all_cases": "inhibition of tumour cell growth, NCI panel, 48 h", "key": {"786-0 renal": {"test_system": "786-0 renal"}, "A498 renal": {"test_system": "A498 renal"}, "A549 NSCLC": {"test_system": "A549 NSCLC"}, "ACHN renal": {"test_system": "ACHN renal"}, "BT-549 breast": {"test_system": "BT-549 breast"}, "CAKI-1 renal": {"test_system": "CAKI-1 renal"}, "CCRF-CEM leukemia": {"test_system": "CCRF-CEM leukemia"}, "COLO 205 colon": {"test_system": "COLO 205 colon"}, "DU-145 prostate": {"test_system": "DU-145 prostate"}, "EKVX NSCLC": {"test_system": "EKVX NSCLC"}, "HCC-2998 colon": {"test_system": "HCC-2998 colon"}, "HCT-116 colon": {"test_system": "HCT-116 colon"}, "HCT-15 colon": {"test_system": "HCT-15 colon"}, "HL-60(TB) leukemia": {"test_system": "HL-60(TB) leukemia"}, "HOP-62 NSCLC": {"test_system": "HOP-62 NSCLC"}, "HOP-92 NSCLC": {"test_system": "HOP-92 NSCLC"}, "HS 578T breast": {"test_system": "HS 578T breast"}, "HT29 colon": {"test_system": "HT29 colon"}, "IGROV1 ovarian": {"test_system": "IGROV1 ovarian"}, "K-562 leukemia": {"test_system": "K-562 leukemia"}, "KM12 colon": {"test_system": "KM12 colon"}, "LOX IMVI melanoma": {"test_system": "LOX IMVI melanoma"}, "M14 melanoma": {"test_system": "M14 melanoma"}, "MALME-3M melanoma": {"test_system": "MALME-3M melanoma"}, "MCF7 breast": {"test_system": "MCF7 breast"}, "MDA-MB-231 breast": {"test_system": "MDA-MB-231 breast"}, "MDA-MB-435": {"test_system": "MDA-MB-435"}, "MDA-N": {"test_system": "MDA-N"}, "MOLT-4 leukemia": {"test_system": "MOLT-4 leukemia"}, "NCI-H226 lung": {"test_system": "NCI-H226 lung"}, "NCI-H23 lung": {"test_system": "NCI-H23 lung"}, "NCI-H460 lung": {"test_system": "NCI-H460 lung"}, "OVCAR-3 ovarian": {"test_system": "OVCAR-3 ovarian"}, "OVCAR-4 ovarian": {"test_system": "OVCAR-4 ovarian"}, "OVCAR-5 ovarian": {"test_system": "OVCAR-5 ovarian"}, "OVCAR-8 ovarian": {"test_system": "OVCAR-8 ovarian"}, "PC-3 prostate": {"test_system": "PC-3 prostate"}, "RXF 393 renal": {"test_system": "RXF 393 renal"}, "SF-268 CNS": {"test_system": "SF-268 CNS"}, "SF-295 CNS": {"test_system": "SF-295 CNS"}, "SF-539 CNS": {"test_system": "SF-539 CNS"}, "SK-MEL-2 melanoma": {"test_system": "SK-MEL-2 melanoma"}, "SK-MEL-28 melanoma": {"test_system": "SK-MEL-28 melanoma"}, "SK-MEL-5 melanoma": {"test_system": "SK-MEL-5 melanoma"}, "SK-OV-3 ovarian": {"test_system": "SK-OV-3 ovarian"}, "SN12C renal": {"test_system": "SN12C renal"}, "SNB-19 CNS": {"test_system": "SNB-19 CNS"}, "SNB-75 CNS": {"test_system": "SNB-75 CNS"}, "SR leukemia": {"test_system": "SR leukemia"}, "SW-620 colon": {"test_system": "SW-620 colon"}, "T-47D breast": {"test_system": "T-47D breast"}, "TK-10 renal": {"test_system": "TK-10 renal"}, "U251 CNS": {"test_system": "U251 CNS"}, "UACC-62 melanoma": {"test_system": "UACC-62 melanoma"}, "UO-31 renal": {"test_system": "UO-31 renal"}}, "note": "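Growth conditions: 96-well plates. Treatment: test compound, 48 hours, 5 concentrations. Analysis: linear interpolation between bracketing concentrations; unreached endpoints set to highest concentration. Definition used: TGI = concentration required for complete inhibition of growth.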", "data": [{"smiles": "COc1ccc(C2=Cc3nc2c(-c2ccccc2)c2ccc([nH]2)c(-c2ccccc2)c2nc(c(-c4ccccc4)c4ccc([nH]4)c3-c3ccccc3)C=C2)cc1", "values": [{"measurement": "TGI", "setting": "786-0 renal", "result": "> 100", "unit": "µM"}, {"measurement": "TGI", "setting": "A498 renal", "result": "> 100", "unit": "µM"}, {"measurement": "TGI", "setting": "A549 NSCLC", "result": "> 100", "unit": "µM"}, {"measurement": "TGI", "setting": "ACHN renal", "result": "> 100", "unit": "µM"}, {"measurement": "TGI", "setting": "BT-549 breast", "result": "> 100", "unit": "µM"}, {"measurement": "TGI", "setting": "CAKI-1 renal", "result": "> 100", "unit": "µM"}, {"measurement": "TGI", "setting": "CCRF-CEM leukemia", "result": "> 100", "unit": "µM"}, {"measurement": "TGI", "setting": "COLO 205 colon", "result": "> 100", "unit": "µM"}, {"measurement": "TGI", "setting": "DU-145 prostate", "result": "> 100", "unit": "µM"}, {"measurement": "TGI", "setting": "EKVX NSCLC", "result": "> 100", "unit": "µM"}, {"measurement": "TGI", "setting": "HCC-2998 colon", "result": "> 100", "unit": "µM"}, {"measurement": "TGI", "setting": "HCT-116 colon", "result": "> 100", "unit": "µM"}, {"measurement": "TGI", "setting": "HCT-15 colon", "result": "> 100", "unit": "µM"}, {"measurement": "TGI", "setting": "HL-60(TB) leukemia", "result": "> 100", "unit": "µM"}, {"measurement": "TGI", "setting": "HOP-62 NSCLC", "result": "> 100", "unit": "µM"}, {"measurement": "TGI", "setting": "HOP-92 NSCLC", "result": "> 100", "unit": "µM"}, {"measurement": "TGI", "setting": "HS 578T breast", "result": "> 100", "unit": "µM"}, {"measurement": "TGI", "setting": "HT29 colon", "result": "> 100", "unit": "µM"}, {"measurement": "TGI", "setting": "IGROV1 ovarian", "result": "> 100", "unit": "µM"}, {"measurement": "TGI", "setting": "K-562 leukemia", "result": "> 100", "unit": "µM"}, {"measurement": "TGI", "setting": "KM12 colon", "result": "> 100", "unit": "µM"}, {"measurement": "TGI", "setting": "LOX IMVI melanoma", "result": "> 100", "unit": "µM"}, {"measurement": "TGI", "setting": "M14 melanoma", "result": "> 100", "unit": "µM"}, {"measurement": "TGI", "setting": "MALME-3M melanoma", "result": "> 100", "unit": "µM"}, {"measurement": "TGI", "setting": "MCF7 breast", "result": "> 100", "unit": "µM"}, {"measurement": "TGI", "setting": "MDA-MB-231 breast", "result": "> 100", "unit": "µM"}, {"measurement": "TGI", "setting": "MDA-MB-435", "result": "> 100", "unit": "µM"}, {"measurement": "TGI", "setting": "MDA-N", "result": "> 100", "unit": "µM"}, {"measurement": "TGI", "setting": "MOLT-4 leukemia", "result": "> 100", "unit": "µM"}, {"measurement": "TGI", "setting": "NCI-H226 lung", "result": "> 100", "unit": "µM"}, {"measurement": "TGI", "setting": "NCI-H23 lung", "result": "> 100", "unit": "µM"}, {"measurement": "TGI", "setting": "NCI-H460 lung", "result": "> 100", "unit": "µM"}, {"measurement": "TGI", "setting": "OVCAR-3 ovarian", "result": "> 100", "unit": "µM"}, {"measurement": "TGI", "setting": "OVCAR-4 ovarian", "result": "> 100", "unit": "µM"}, {"measurement": "TGI", "setting": "OVCAR-5 ovarian", "result": "> 100", "unit": "µM"}, {"measurement": "TGI", "setting": "OVCAR-8 ovarian", "result": "> 100", "unit": "µM"}, {"measurement": "TGI", "setting": "PC-3 prostate", "result": "> 100", "unit": "µM"}, {"measurement": "TGI", "setting": "RXF 393 renal", "result": "> 100", "unit": "µM"}, {"measurement": "TGI", "setting": "SF-268 CNS", "result": "> 100", "unit": "µM"}, {"measurement": "TGI", "setting": "SF-295 CNS", "result": "> 100", "unit": "µM"}, {"measurement": "TGI", "setting": "SF-539 CNS", "result": "> 100", "unit": "µM"}, {"measurement": "TGI", "setting": "SK-MEL-2 melanoma", "result": "> 100", "unit": "µM"}, {"measurement": "TGI", "setting": "SK-MEL-28 melanoma", "result": "> 100", "unit": "µM"}, {"measurement": "TGI", "setting": "SK-MEL-5 melanoma", "result": "> 100", "unit": "µM"}, {"measurement": "TGI", "setting": "SK-OV-3 ovarian", "result": "> 100", "unit": "µM"}, {"measurement": "TGI", "setting": "SN12C renal", "result": "> 100", "unit": "µM"}, {"measurement": "TGI", "setting": "SNB-19 CNS", "result": "> 100", "unit": "µM"}, {"measurement": "TGI", "setting": "SNB-75 CNS", "result": "> 100", "unit": "µM"}, {"measurement": "TGI", "setting": "SR leukemia", "result": "> 100", "unit": "µM"}, {"measurement": "TGI", "setting": "SW-620 colon", "result": "> 100", "unit": "µM"}, {"measurement": "TGI", "setting": "T-47D breast", "result": "> 100", "unit": "µM"}, {"measurement": "TGI", "setting": "TK-10 renal", "result": "> 100", "unit": "µM"}, {"measurement": "TGI", "setting": "U251 CNS", "result": 91.3, "unit": "µM"}, {"measurement": "TGI", "setting": "UACC-62 melanoma", "result": "> 100", "unit": "µM"}, {"measurement": "TGI", "setting": "UO-31 renal", "result": "> 100", "unit": "µM"}]}]}
